Experimental findings from US12559492B2, “BRAF degraders” (C4 Therapeutics, Inc., priority 2020, dated 2026) are described below.

The target in the experiment is BRAF^V600E protein (Homo sapiens, UniProt P15056, V600E). Put plainly: HiBiT cellular BRAF V600E degradation assay. The note with it: 24 h incubation; for DC50: A375.10 cells (HiBiT tag knocked in at N-terminal of BRAF V600E), concentration at which 50% of total cellular BRAF V600E is degraded; for Emax: read-out: HiBit 24 h Emax. Format: cell-based. Background: HiBiT is a short tag that completes a luciferase, so light tracks the accessible tagged protein.
Sequence of BRAF^V600E protein (P15056 whole entry V600E): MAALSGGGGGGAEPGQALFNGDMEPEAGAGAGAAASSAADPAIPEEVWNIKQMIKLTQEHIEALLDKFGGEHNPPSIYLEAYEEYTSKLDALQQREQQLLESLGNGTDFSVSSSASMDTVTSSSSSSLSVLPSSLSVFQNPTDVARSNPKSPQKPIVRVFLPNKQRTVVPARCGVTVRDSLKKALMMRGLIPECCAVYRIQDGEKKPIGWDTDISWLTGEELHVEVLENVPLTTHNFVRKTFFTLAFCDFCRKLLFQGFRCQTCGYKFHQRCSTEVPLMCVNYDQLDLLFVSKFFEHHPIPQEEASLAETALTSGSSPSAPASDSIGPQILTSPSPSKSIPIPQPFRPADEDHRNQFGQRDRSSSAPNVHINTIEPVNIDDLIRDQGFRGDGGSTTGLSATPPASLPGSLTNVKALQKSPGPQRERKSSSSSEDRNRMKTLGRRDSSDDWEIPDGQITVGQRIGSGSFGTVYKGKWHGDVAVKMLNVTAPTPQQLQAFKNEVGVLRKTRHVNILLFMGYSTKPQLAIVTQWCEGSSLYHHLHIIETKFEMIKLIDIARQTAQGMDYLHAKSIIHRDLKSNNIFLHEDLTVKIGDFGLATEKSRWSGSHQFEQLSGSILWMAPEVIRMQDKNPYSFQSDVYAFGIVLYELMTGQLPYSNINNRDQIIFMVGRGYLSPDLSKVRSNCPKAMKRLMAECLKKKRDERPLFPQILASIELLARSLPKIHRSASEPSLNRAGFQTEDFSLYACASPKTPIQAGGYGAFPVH

Setting [1] is: A375.10 cells, Emax = amount of residual protein remaining in the cell after compound treatment.

`CCN(C)S(=O)(=O)Nc1ccc(F)c(C(=O)c2c[nH]c3ncc(-c4cnc(N5CCN(C(=O)CN6CCC(c7ccc8c(N9CCC(=O)NC9=O)nn(C)c8c7)CC6)CC5)nc4)cc23)c1F` [Example 34, 3-(2,4-dioxohexahydropyrimidin-1-yl)-6-[1-[2-[4-[5-[3-[3-[[ethyl(methyl)sulfamoyl]amino]-2,6-difluoro-benzoyl]-1H-pyrrolo[2,3-b]pyridin-5-yl]pyrimidin-2-yl]piperazin-1-yl]-2-oxo-ethyl]-4-piperidyl]-1-methyl-indazole] yielded a DC50 of 2.52 nM. Moreover, the Emax under setting [1] worked out at 8.14%.

Take `CCN(C)S(=O)(=O)Nc1ccc(F)c(C(=O)c2c[nH]c3ncc(-c4cnc(N5CCN(C(=O)CC6(O)CCN(c7cc(F)c(N8CCC(=O)NC8=O)cc7Cl)CC6)CC5)nc4)cc23)c1F` [Example 216, 5-[2-[4-[2-[1-[2-chloro-4-(2,4-dioxohexahydropyrimidin-1-yl)-5-fluoro-phenyl]-4-hydroxy-4-piperidyl]acetyl]piperazin-1-yl]pyrimidin-5-yl]-3-[3-[[ethyl(methyl)sulfamoyl]amino]-2,6-difluoro-benzoyl]-1H-pyrrolo[2,3-b]pyridine]: it took 1.33 nM to reach half-maximal degradation (DC50). The Emax under setting [1] is 7.4%.

The compound `CCN(C)S(=O)(=O)Nc1ccc(F)c(C(=O)c2c[nH]c3ncc(-c4cnc(N5CCC(NC(=O)CN6CCC(c7ccc(NC8CCC(=O)NC8=O)cc7)CC6)CC5)nc4)cc23)c1F` (stereo not drawn) [Example A62, 2-[4-[4-[(2,6-Dioxopiperidin-3-yl)amino]phenyl]piperidin-1-yl]-N-[1-[5-[3-[3-[[ethyl(methyl)sulfamoyl]amino]-2,6-difluorobenzoyl]-1H-pyrrolo[2,3-b]pyridin-5-yl]pyrimidin-2-yl]piperidin-4-yl]acetamide;formic acid] registered a 50% degradation concentration (DC50) of 8 nM. Under setting [1], the Emax is 18%.

Take `CCN(C)S(=O)(=O)Nc1ccc(F)c(C(=O)c2c[nH]c3ncc(-c4cnc(N5CCN(C(=O)CN6CCC(N7CCN(C8CCC(=O)NC8=O)C(=O)C7)CC6)CC5)nc4)cc23)c1F` (stereo not drawn) [Example 37, 5-[2-[4-[2-[4-[4-(2,6-dioxo-3-piperidyl)-3-oxo-piperazin-1-yl]-1-piperidyl]acetyl]piperazin-1-yl]pyrimidin-5-yl]-3-[3-[[ethyl(methyl)sulfamoyl]amino]-2,6-difluoro-benzoyl]-1H-pyrrolo[2,3-b]pyridine]: half-maximal degradation (DC50) was put at 17.2 nM. Further, the Emax under setting [1] worked out at 9.14%.

Turning to `CCN(C)S(=O)(=O)Nc1ccc(F)c(C(=O)c2c[nH]c3ncc(-c4cnc(N5CC6(CN(C(=O)CN7CCC(c8ccc(NC9CCC(=O)NC9=O)cc8)CC7)C6)C5)nc4)cc23)c1F` (stereo not drawn) [Example 64, 5-[2-[2-[2-[4-[4-[(2,6-dioxo-3-piperidyl)amino]phenyl]-1-piperidyl]acetyl]-2,6-diazaspiro[3.3]heptan-6-yl]pyrimidin-5-yl]-3-[3-[[ethyl(methyl)sulfamoyl]amino]-2,6-difluoro-benzoyl]-1H-pyrrolo[2,3-b]pyridine], half-maximal degradation (DC50) was put at 7.21 nM. The Emax under setting [1] is 9.33%.

As to `CCN(C)S(=O)(=O)Nc1ccc(F)c(C(=O)c2c[nH]c3ncc(-c4cnc(N5CCN(C(=O)CC6(O)CCN(c7ccc(NC8CCC(=O)NC8=O)cc7)CC6)CC5)nc4)cc23)c1F` (stereo not drawn) [Example 38, 5-[2-[4-[2-[1-[4-[(2,6-dioxo-3-piperidyl)amino]phenyl]-4-hydroxy-4-piperidyl]acetyl]piperazin-1-yl]pyrimidin-5-yl]-3-[3-[[ethyl(methyl)sulfamoyl]amino]-2,6-difluoro-benzoyl]-1H-pyrrolo[2,3-b]pyridine], it took 4.44 nM to reach half-maximal degradation (DC50). The Emax under setting [1] is 13.4%.

Take `CCN(C)S(=O)(=O)Nc1ccc(F)c(C(=O)c2c[nH]c3ncc(-c4ccc(N5CCN(C(=O)CC6(O)CCN(c7ccc(N[C@H]8CCC(=O)NC8=O)cc7F)CC6)CC5)cc4)cc23)c1F` [Example 179, 5-[4-[4-[2-[1-[4-[[(3S)-2,6-dioxo-3-piperidyl]amino]-2-fluoro-phenyl]-4-hydroxy-4-piperidyl]acetyl]piperazin-1-yl]phenyl]-3-[3-[[ethyl(methyl)sulfamoyl]amino]-2,6-difluoro-benzoyl]-1H-pyrrolo[2,3-b]pyridine]: the DC50 was 5.91 nM. Also, the Emax under setting [1] is 8.35%.

On to `O=C1CCC(Nc2ccc(N3CCN(CC(=O)N4CCN(c5ccc(-c6cnc7[nH]cc(C(=O)c8c(F)ccc(NS(=O)(=O)N9CC[C@@H](F)C9)c8F)c7c6)cc5)CC4)CC3)cc2)C(=O)N1` (stereo partly drawn) [Example A74, (3R)—N-[3-[5-[4-[4-[2-[4-[4-[(2,6-Dioxopiperidin-3-yl)amino]phenyl]piperazin-1-yl]acetyl]piperazin-1-yl]phenyl]-1H-pyrrolo[2,3-b]pyridine-3-carbonyl]-2,4-difluorophenyl]-3-fluoropyrrolidine-1-sulfonamide], for which the DC50 was 7 nM. For the same compound, the maximal effect (Emax) under setting [1] was determined as 19%.

As for `CCN(C)S(=O)(=O)Nc1ccc(F)c(C(=O)c2c[nH]c3ncc(-c4cnc(N5CCN(C(=O)CC6(O)CCN(c7ccc(C8CCC(=O)NC8=O)cc7F)CC6)CC5)nc4)cc23)c1F` (racemic) [Example 158, 5-[2-[4-[2-[1-[4-(2,6-dioxo-3-piperidyl)-2-fluoro-phenyl]-4-hydroxy-4-piperidyl]acetyl]piperazin-1-yl]pyrimidin-5-yl]-3-[3-[[ethyl(methyl)sulfamoyl]amino]-2,6-difluoro-benzoyl]-1H-pyrrolo[2,3-b]pyridine], the DC50 stood at 2.73 nM. Also, under setting [1], the Emax worked out at 9.38%.

For the compound `CCN(C)S(=O)(=O)Nc1ccc(F)c(C(=O)c2c[nH]c3ncc(-c4ccc(N5CCN(C(=O)CN6CCC(c7ccc(O[C@H]8CCC(=O)NC8=O)cc7)CC6)CC5)nc4)cc23)c1F` [Example 73, 5-[6-[4-[2-[4-[4-[[(3S)-2,6-dioxo-3-piperidyl]oxy]phenyl]-1-piperidyl]acetyl]piperazin-1-yl]-3-pyridyl]-3-[3-[[ethyl(methyl)sulfamoyl]amino]-2,6-difluoro-benzoyl]-1H-pyrrolo[2,3-b]pyridine], the 50% degradation concentration (DC50) worked out at 12.3 nM. Under setting [1], the “HiBit 24 h Emax” value was 8.05%.

As for `CCN(C)S(=O)(=O)Nc1cccc(C(=O)c2c[nH]c3ncc(-c4ccc(N5CCN(C(=O)CN6CCC(c7ccc(NC8CCC(=O)NC8=O)cc7)C(F)(F)C6)CC5)nc4)cc23)c1F` (stereo not drawn) [Example 110, 5-[6-[4-[2-[4-[4-[(2,6-dioxo-3-piperidyl)amino]phenyl]-3,3-difluoro-1-piperidyl]acetyl]piperazin-1-yl]-3-pyridyl]-3-[3-[[ethyl(methyl)sulfamoyl]amino]-2-fluoro-benzoyl]-1H-pyrrolo[2,3-b]pyridine], the DC50 was 4.47 nM. Moreover, the maximum response (Emax) under setting [1] was 7.75%.

For `CCN(C)S(=O)(=O)Nc1ccc(F)c(C(=O)c2c[nH]c3ncc(-c4cnc(N5CCN(C(=O)CN6CC[C@@H](c7ccc(NC8CCC(=O)NC8=O)cc7)C(F)(F)C6)CC5)nc4)cc23)c1F` (stereo partly drawn) [Example 54, 5-[2-[4-[2-[(4S)-4-[4-[(2,6-dioxo-3-piperidyl)amino]phenyl]-3,3-difluoro-1-piperidyl]acetyl]piperazin-1-yl]pyrimidin-5-yl]-3-[3-[[ethyl(methyl)sulfamoyl]amino]-2,6-difluoro-benzoyl]-1H-pyrrolo[2,3-b]pyridine], the DC50 came to 4.72 nM. Further, the Emax under setting [1] is 6.94%.

The DC50 is the concentration at which degradation of the target reaches its halfway point. The term Emax denotes the greatest response seen or fitted, relative to the assay's reference.
